Patent US6420419B1, “L-ascorbic acid 2-phosphate zinc salt and process for manufacturing the same” (Showa Denko Kabushiki Kaisha, priority 1997, dated 2002)

Columns and labels:
[1] = Stability in buffer solution, storage at 50° C. for 476 hours, HPLC; assay type: physicochemical; details: for Stability (100% = concentration before storage) pH: 8: about 0.1% in 50 mM Tris-HCl, pH: 8, stored at 50° C. for 476 hours; for Stability (100% = concentration before storage) pH: 5: about 0.1% in 50 mM acetic acid-NaOH, pH: 5, stored at 50° C. for 476 hours
Description: In the Examples and Test Examples, the analysis of an L-ascorbic acid 2-phosphate salt or an ion thereof was performed using an Ap-containing solution having a known concentration (prepared from L-ascorbic acid 2-phosphate magnesium salt) as a standard by an HPLC method using a Shodex IEC DEAE-825 resin (ammonium acetate 10 mM→1M gradient, detected spectrophotometrically at 265 nm). The elemental analysis was performed by an ICP emission method, flame photometry and an ion chromatography method. Unless otherwise indicated, the reagents used herein were commercially available reagents.
The stability of L-ascorbic acid 2-phosphate zinc salt was compared to that of L-ascorbic acid 2-phosphate magnesium salt. Each salt was dissolved in a buffer solution (50 mM acetic acid-NaOH, pH: 5, or 50 mM Tris-HCl, pH: 8). to a concentration of about 0.1% and stored at 50° C. for 476 hours. The concentrations of the L-ascorbic acid 2-phosphate before and after storage were analyzed by the HPLC method.

[2] = tested on: B. subtilis (168 strain); assay: Antimicrobial effect, turbidity in NUTRIENT BROTH; assay type: cell-based; set-up: key: “+” indicates that turbidity increased after incubation; “−” indicates no increase in turbidity; details: 0.1% salt, pH 6.8, about 10^7 cells/ml, 37° C. for 24 hours
Description: (§1) To NUTRIENT BROTH (produced by DIFCO), 0.1% of an L-ascorbic acid 2-phosphate salt was added thereto, and the pH was adjusted to 6.8 using hydrochloric acid or sodium hydroxide. Using 5 ml of the medium thus prepared, test bacterium were inoculated in a concentration of about 10^7 cells/ml and incubated in a test tube at 37° C. for 24 hours. […] As a control, the same test was performed using a medium not containing an L-ascorbic acid 2-phosphate salt.

[3] = tested on: E. coli (K-12 strain); assay: Antimicrobial effect, turbidity in NUTRIENT BROTH; assay type: cell-based; set-up: key: “+” indicates that turbidity increased after incubation; “−” indicates no increase in turbidity; details: 0.1% salt, pH 6.8, about 10^7 cells/ml, 37° C. for 24 hours
Description: as §1

[4] = in water; background statement on conventionally known salts; cited from earlier work
[5] = Solubility in water; assay type: physicochemical
[6] = listed as L-ascorbic acid 2-phosphate zinc salt (Example 1)
[7] = listed as L-ascorbic acid 2-phosphate zinc salt (Example 2)

O=C1O[C@H]([C@@H](O)CO)C(O)=C1OP(=O)([O-])[O-].[Zn+2] [Example 1, L-ascorbic acid 2-phosphate zinc salt]
Stability (100% = concentration before storage) pH: 8 [1, 6]: 93%
Stability (100% = concentration before storage) pH: 5 [1, 6]: 91%
Increase in turbidity after incubation, B. subtilis (168 strain) [2]: −
Increase in turbidity after incubation, E. coli (K-12 strain) [3]: −

O=C1O[C@H]([C@@H](O)CO)C(O)=C1OP(=O)([O-])[O-].[Zn+2] [Example 2, L-ascorbic acid 2-phosphate zinc salt]
Stability (100% = concentration before storage) pH: 8 [1, 7]: 95%
Stability (100% = concentration before storage) pH: 5 [1, 7]: 92%

O=C1O[C@H]([C@@H](O)CO)C(O)=C1OP(=O)([O-])[O-].[Mg+2] [L-ascorbic acid 2-phosphate magnesium salt]
Stability (100% = concentration before storage) pH: 8 [1]: 95%
Stability (100% = concentration before storage) pH: 5 [1]: 82%
Increase in turbidity after incubation, B. subtilis (168 strain) [2]: +
Increase in turbidity after incubation, E. coli (K-12 strain) [3]: +
Concentration of aqueous solution that can be formed [4]: < 30%

O=C1O[C@H]([C@@H](O)CO)C(O)=C1OP(=O)([O-])[O-].[Zn+2] [L-ascorbic acid 2-phosphate zinc salt]
Concentration of aqueous solution easily formed [5]: ≥ 50 wt %

O=C1O[C@H]([C@@H](O)CO)C(O)=C1OP(=O)([O-])[O-].[Na+].[Na+] [Sodium salt, Sodium L-ascorbic acid 2-phosphate]
Increase in turbidity after incubation, B. subtilis (168 strain) [2]: +
Increase in turbidity after incubation, E. coli (K-12 strain) [3]: +
Concentration of aqueous solution that can be formed [4]: about 30%
